Experiments:
SARS-CoV-2 [1] = assay: time of addition assay in Vero cells, plaque assay; assay type: cell-based; settings: infectious particles by plaque assay at 16 h pi
SARS-CoV-2 [2] = settings: incubation of SARS-CoV-2 with compound for 1 hr at 37° C., plaque assay
SARS-CoV-2 [3] = assay: viral load reduction assay in Vero E6 cells (RT-qPCR of released genome copies); assay type: cell-based
SARS-CoV-2 [4] = assay: viral load reduction assay in human lung epithelial (Calu) cells (RT-qPCR of released genome copies); assay type: cell-based; settings: MOI 1, 150 uM, 16 h pi

**Q.** With `CC(C)NC[C@@H](O)COc1cccc2ccccc12` [R-propranolol, (R)-(+)-1-(isopropylamino)-3-(naphthalen-1-yloxy)propan-2-ol] as the molecule, how does the “reduction of viral load by time of addition” value (SARS-CoV-2 [1]) read?
**A.** highest reduction of viral load upon pre-treatment

**Q.** And the “reduction of infectivity of virus particles (virucidal activity)” value (SARS-CoV-2 [2])?
**A.** does not reduce infectivity of virus particles

**Q.** And the “efficacy in viral load reduction compared with remdesivir” value (SARS-CoV-2 [3]; 25 uM)?
**A.** approximately the same efficacy as remdesivir

**Q.** What about the “reduction in extracellular SARS-CoV-2 genome copies” value (SARS-CoV-2 [3]; MOI 1, 50 uM, 16 h post-infection) of the same molecule?
**A.** ~2.5 log

**Q.** And the “reduction in extracellular SARS-CoV-2 genome copies” value (SARS-CoV-2 [4])?
**A.** about 1.5 log

Source: US20240358659A1, “Uses of Propranolol for Managing Viral Infections” (Emory University, priority 2021, published 2024)
